What was measured:
histamine 1 receptor H1R = target: T1, histamine 1 receptor H1R (Homo sapiens, UniProt P35367); test: H1R calcium flux fluorescence assay with GCaMP3 or small molecule dye kits; type: cell-based; settings: HEK293 and HeLa cells
T1 construct: The H1R was cloned into the pCAG mammalian expression vector; expressed in transfected cells; host or cells: HEK293 and HeLa cells, transfected with pCAG-H1R (with pCAG-GCaMP3 or loaded with a dye kit)
Protocol: The nucleic acid sequence was cloned into a mammalian expression vector driving from the CAG promoter (pCAG).
The H1R was cloned into the pCAG mammalian expression vector. […] In parallel, HEK293 cells were transfected with pCAG-H1R and incubated with either of the two best-performing small molecule dye calcium kits (the BD Calcium Kit from BD Biosciences and the FLIPR Calcium-5 Kit from Molecular Devices). […] Biophys.

HEK293 cells = test: Baseline fluorescence (brightness) of GCaMP-transfected HEK293 cells; type: cell-based, human; settings: 10 μM proteasome inhibitor
Protocol: FIGS. 1A-1E show the in vitro characterization of GCaMP3. […] FIG. 1B is a schematic representation of GCaMP2 and GCaMP3. Mutated residues are shown below GCaMP3. FIG. 1C is a graph of the fluorescence spectra of GCaMP3 and GCaMP2 (1 μM protein) with 1 mM Ca^2+ or 10 mM EGTA in MOPS buffer (30 mM MOPS, 100 mM KCl, pH 7.5) (average of three independent measurements). The fluorescence intensity of each indicator was normalized to the peak of the calcium-saturated spectrum. […] FIG. 1D is a graph of the Ca^2+ titration curve (1 μM protein) in MOPS buffer. […] FIG. 1E is images (left) and a graph (right) showing the improved baseline fluorescence of GCaMP3 compared to GCaMP2. Both indicators were either transfected to HEK293 cells or virally delivered to layer 2/3 cortical neurons. Images were taken either 48 hours post-transfection or 12 days post-viral injection, then analyzed with VOLOCITY® 5.0 (Improvision Imaging Processing & Vision Co., Coventry, England). 50 μm scale bar. […]
GCaMPs in pCMV were transfected into HEK293 cells using Lipofectamine 2000 (Invitrogen, Carlsbad, Calif.), and imaging experiments were performed 48 hours post transfection. 293 cells transfected with GCaMPs in 96-well plate were imaged on an FDSS plate reader (Hamamatsu, Japan). Acetylcholine (Ach) was automatically added 10 seconds after read initiation. Brightness was quantified using VOLOCITY® 5.0 (Improvision).

T1 sequence (P35367 with tags, fused parts or gaps): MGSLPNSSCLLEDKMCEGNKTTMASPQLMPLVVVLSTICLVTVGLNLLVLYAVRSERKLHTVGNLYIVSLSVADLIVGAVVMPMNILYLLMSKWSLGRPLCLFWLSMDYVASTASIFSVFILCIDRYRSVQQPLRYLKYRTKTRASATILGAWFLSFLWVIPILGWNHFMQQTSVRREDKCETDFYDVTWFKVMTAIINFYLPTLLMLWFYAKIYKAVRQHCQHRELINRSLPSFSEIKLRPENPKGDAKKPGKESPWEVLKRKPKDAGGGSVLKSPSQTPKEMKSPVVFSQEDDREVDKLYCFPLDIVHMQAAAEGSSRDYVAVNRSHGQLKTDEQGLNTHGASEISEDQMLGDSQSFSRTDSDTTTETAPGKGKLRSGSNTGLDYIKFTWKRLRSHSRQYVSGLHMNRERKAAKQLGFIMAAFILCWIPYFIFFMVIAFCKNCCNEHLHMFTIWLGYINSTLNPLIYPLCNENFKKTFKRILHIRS

| SMILES | response-to-baseline ratio (histamine 1 receptor H1R; 10 nM histamine plus antagonist, all detection methods) | inhibition of the H1R receptor (histamine 1 receptor H1R; 10 nM histamine, GCaMP3 and both dye kits) | effect on baseline fluorescence of HEK293 cells expressing GCaMP2 (HEK293 cells) |
| --- | --- | --- | --- |
| O=C(O)COCCN1CCN(C(c2ccccc2)c2ccc(Cl)cc2)CC1 (stereo not drawn) [cetirizine] | ~1.0 | near complete inhibition |  |
| CC(=O)N[C@@H](CSC(=O)[C@]1([C@@H](O)C(C)C)NC(=O)[C@H](C)[C@@H]1O)C(=O)O [lactacystin] |  |  | increased the baseline fluorescence |

Reference: patent US8629256B2, “Genetically encoded calcium indicator polypeptides and nucleic acids encoding same” (Howard Hughes Medical Institute, priority 2009, dated 2014)
